Laboratory results from ChEMBL document CHEMBL1133710 (J Med Chem, 2000).
Each block holds one molecule with its values, some of them ahead of it.

What was measured:
D(2) dopamine receptor [1] = molecular target: T1, D(2) dopamine receptor (Homo sapiens, UniProt P14416); test: Binding Affinity of Compound of Dopamine receptor D2S
D(2) dopamine receptor [2] = molecular target: T1, D(2) dopamine receptor; test: Binding Affinity was determined in the presence of 100 micro M Gpp(NH)p for decoupling of the ternary complex of Compound to Dopamine receptor D2S
D(4) dopamine receptor [3] = molecular target: T2, D(4) dopamine receptor (Homo sapiens, UniProt P21917); test: Binding Affinity was tested on the high affinity site of Dopamine receptor D4.4
T2 sequence (P21917 whole entry): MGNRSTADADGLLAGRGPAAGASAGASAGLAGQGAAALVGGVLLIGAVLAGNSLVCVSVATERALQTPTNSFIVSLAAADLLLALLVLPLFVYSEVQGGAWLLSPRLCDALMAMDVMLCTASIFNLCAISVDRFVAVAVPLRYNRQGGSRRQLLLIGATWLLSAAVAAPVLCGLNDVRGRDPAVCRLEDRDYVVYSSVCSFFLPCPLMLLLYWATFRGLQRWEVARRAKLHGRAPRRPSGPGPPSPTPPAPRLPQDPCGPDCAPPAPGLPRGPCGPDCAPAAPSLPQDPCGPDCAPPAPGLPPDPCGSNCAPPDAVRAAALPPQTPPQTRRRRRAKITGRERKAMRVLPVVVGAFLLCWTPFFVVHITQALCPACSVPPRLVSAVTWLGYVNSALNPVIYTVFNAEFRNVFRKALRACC

D(4) dopamine receptor [4] = molecular target: T2, D(4) dopamine receptor; test: Binding Affinity was tested on low Affinity Site of Dopamine receptor D4.4
D(2) dopamine receptor [5] = molecular target: T1, D(2) dopamine receptor; test: Binding Affinity was determined in the presence of 100 micro M Gpp(NH)p for decoupling of the ternary complex of Compound to Dopamine receptor D2L
D(2) dopamine receptor [6] = molecular target: T1, D(2) dopamine receptor; test: Binding Affinity was tested on low Affinity Site of Dopamine receptor D2L
D(2) dopamine receptor [7] = molecular target: T1, D(2) dopamine receptor; test: Dissociation constant of compound on one-site model Dopamine receptor D2S
D(2) dopamine receptor [8] = molecular target: T1, D(2) dopamine receptor; test: Dissociation constant of compound on one-site model Dopamine receptor D2L
D(4) dopamine receptor [9] = molecular target: T2, D(4) dopamine receptor; test: Dissociation constant of compound on one-site model Dopamine receptor D4.4
D(3) dopamine receptor [10] = molecular target: T3, D(3) dopamine receptor (Homo sapiens, UniProt P35462); test: Binding Affinity was determined in the presence of 100 micro M Gpp(NH)p for decoupling of the ternary complex of Compound to Dopamine receptor D3
T3 sequence (P35462 whole entry): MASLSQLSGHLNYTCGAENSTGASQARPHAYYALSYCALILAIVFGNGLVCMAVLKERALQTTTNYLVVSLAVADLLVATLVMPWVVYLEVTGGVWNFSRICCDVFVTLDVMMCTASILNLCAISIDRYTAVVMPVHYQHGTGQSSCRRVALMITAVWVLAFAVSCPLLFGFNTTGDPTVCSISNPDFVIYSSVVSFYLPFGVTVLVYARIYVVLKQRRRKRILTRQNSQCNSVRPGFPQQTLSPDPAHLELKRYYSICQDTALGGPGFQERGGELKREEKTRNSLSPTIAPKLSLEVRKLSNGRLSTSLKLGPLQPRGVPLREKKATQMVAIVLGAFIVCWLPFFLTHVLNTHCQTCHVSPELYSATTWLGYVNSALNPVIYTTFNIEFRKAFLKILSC

D(3) dopamine receptor [11] = molecular target: T3, D(3) dopamine receptor; test: Binding Affinity was tested on low Affinity Site of Dopamine receptor D3
D(3) dopamine receptor [12] = molecular target: T3, D(3) dopamine receptor; test: Dissociation constant of compound on one-site model Human Dopamine receptor D3
D(2) dopamine receptor [13] = molecular target: T1, D(2) dopamine receptor
D(2) dopamine receptor [14] = molecular target: T1, D(2) dopamine receptor; remark: listed apart in the source
D(3) dopamine receptor [15] = molecular target: T3, D(3) dopamine receptor
D(2) dopamine receptor [16] = molecular target: T4, D(2) dopamine receptor (Bos taurus, UniProt P20288); test: Binding Affinity was tested on high Affinity Site of Bovine Dopamine D2 Receptor. Tested for ability to displace the radioligand [3H]-Spiperone
T4 sequence (P20288 whole entry): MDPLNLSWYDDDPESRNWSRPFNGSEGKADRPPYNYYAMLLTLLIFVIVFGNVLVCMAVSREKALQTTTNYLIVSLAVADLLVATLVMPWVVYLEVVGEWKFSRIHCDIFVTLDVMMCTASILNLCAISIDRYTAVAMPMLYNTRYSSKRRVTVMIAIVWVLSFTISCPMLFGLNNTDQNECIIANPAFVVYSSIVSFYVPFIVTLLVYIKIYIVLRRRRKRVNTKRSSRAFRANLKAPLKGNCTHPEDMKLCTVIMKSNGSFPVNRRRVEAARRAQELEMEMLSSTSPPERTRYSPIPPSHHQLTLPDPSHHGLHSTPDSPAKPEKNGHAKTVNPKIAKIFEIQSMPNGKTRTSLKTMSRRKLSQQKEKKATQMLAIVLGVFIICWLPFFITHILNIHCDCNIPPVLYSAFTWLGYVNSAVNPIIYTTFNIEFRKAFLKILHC

D(2) dopamine receptor [17] = molecular target: T4, D(2) dopamine receptor; test: Dissociation constant of compound on one-site model Bovine dopamine receptor D2. Tested for ability to displace the radioligand [3H]spiperone at the binding site.
D(2) dopamine receptor [18] = molecular target: T4, D(2) dopamine receptor; test: Binding Affinity was determined for decoupling of the ternary complex of Compound to Bovine dopamine receptor D2. Tested for ability to displace the radioligand [3H]spiperone at the binding site.
D(2) dopamine receptor [19] = molecular target: T4, D(2) dopamine receptor; test: Binding Affinity was tested on high Affinity Site of Bovine dopamine receptor D2. Tested for ability to displace the radioligand [3H]pramipexole at the binding site.
D(2) dopamine receptor [20] = molecular target: T4, D(2) dopamine receptor; test: Binding Affinity was tested on low Affinity Site of Bovine dopamine receptor D2. Tested for ability to displace the radioligand [3H]spiperone at the binding site.
D(3) dopamine receptor [21] = molecular target: T3, D(3) dopamine receptor; test: Dissociation constant of compound on one-site model Dopamine receptor D3
D(1A) dopamine receptor [22] = molecular target: T5, D(1A) dopamine receptor (Bos taurus, UniProt Q95136); test: Binding Affinity was tested on High Affinity Site of Bovine dopamine receptor D1. Tested for ability to displace the radioligand [3H]-SCH- 23390
T5 sequence (Q95136 whole entry): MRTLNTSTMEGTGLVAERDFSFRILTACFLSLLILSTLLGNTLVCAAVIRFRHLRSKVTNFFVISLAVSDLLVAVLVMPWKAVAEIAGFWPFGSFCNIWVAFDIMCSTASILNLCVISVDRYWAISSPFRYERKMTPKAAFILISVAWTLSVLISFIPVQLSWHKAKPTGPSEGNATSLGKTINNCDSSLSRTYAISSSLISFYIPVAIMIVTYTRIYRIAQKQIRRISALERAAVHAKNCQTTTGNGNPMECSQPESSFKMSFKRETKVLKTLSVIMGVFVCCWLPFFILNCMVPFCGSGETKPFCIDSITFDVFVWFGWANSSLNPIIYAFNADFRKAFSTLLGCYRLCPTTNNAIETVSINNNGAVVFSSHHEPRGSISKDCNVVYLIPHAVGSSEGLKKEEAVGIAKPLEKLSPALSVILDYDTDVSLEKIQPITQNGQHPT

D(1A) dopamine receptor [23] = molecular target: T5, D(1A) dopamine receptor; test: Binding Affinity was tested on High Affinity Site of Bovine Dopamine D1 Receptor. Tested for ability to displace the radioligand [3H]-SCH- 23390
D(2) dopamine receptor [24] = molecular target: T1, D(2) dopamine receptor; test: Binding Affinity was tested on High Affinity Site of Dopamine receptor D2L
D(2) dopamine receptor [25] = molecular target: T1, D(2) dopamine receptor; test: Binding Affinity was tested on High Affinity Site of Dopamine receptor D2S
D(1A) dopamine receptor [26] = molecular target: T5, D(1A) dopamine receptor; test: Binding Affinity was tested for its ability to displace the radioligand [3H]-SCH- 23390 from High Affinity Site of Bovine dopamine receptor D1
D(2) dopamine receptor [27] = molecular target: T1, D(2) dopamine receptor; remark: listed apart in the source
D(2) dopamine receptor [28] = molecular target: T1, D(2) dopamine receptor; remark: listed apart in the source
D(3) dopamine receptor [29] = molecular target: T3, D(3) dopamine receptor; remark: listed apart in the source

T1 sequence (P14416 whole entry): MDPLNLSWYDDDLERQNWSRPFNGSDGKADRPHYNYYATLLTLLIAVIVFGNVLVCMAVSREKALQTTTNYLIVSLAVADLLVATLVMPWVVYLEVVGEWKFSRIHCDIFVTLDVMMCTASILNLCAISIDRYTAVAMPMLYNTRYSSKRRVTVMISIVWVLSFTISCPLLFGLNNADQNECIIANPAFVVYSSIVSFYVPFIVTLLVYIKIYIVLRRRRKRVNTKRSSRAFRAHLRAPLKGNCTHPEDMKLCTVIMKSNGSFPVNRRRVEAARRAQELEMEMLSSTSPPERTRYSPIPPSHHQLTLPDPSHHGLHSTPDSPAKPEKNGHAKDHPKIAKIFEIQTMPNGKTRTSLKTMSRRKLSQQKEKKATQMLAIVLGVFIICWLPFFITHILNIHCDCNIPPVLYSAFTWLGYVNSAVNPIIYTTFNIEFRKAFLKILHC

SMILES: CCCN(CCC)C1CCC(=C(C#C[Si](C)(C)C)C#C[Si](C)(C)C)CC1 (stereo unspecified)
Ki (D(1A) dopamine receptor [23]): 3.9 µM | Ki (D(4) dopamine receptor [3]): 1.9 µM | Ki (D(2) dopamine receptor [13]): 13 µM | Ki (D(2) dopamine receptor [14]): 11 µM | Ki (D(3) dopamine receptor [15]): 2.8 µM

SMILES: CCCN(CCC)C1CCC(=C(C#N)C#N)CC1 (stereo unspecified)
Ki (D(4) dopamine receptor [3]): > 20 µM | Ki (D(1A) dopamine receptor [22]): > 20 µM | Ki (D(2) dopamine receptor [13]): 15 µM | Ki (D(2) dopamine receptor [14]): > 20 µM | Ki (D(3) dopamine receptor [15]): 1.6 µM

SMILES: C#CC(C#C)=C1CCC(N(CCC)CCC)CC1 (stereo unspecified)
Ki (D(1A) dopamine receptor [23]): 16 µM | Ki (D(4) dopamine receptor [3]): 3.9 µM | Ki (D(2) dopamine receptor [13]): > 20 µM | Ki (D(2) dopamine receptor [14]): 12 µM | Ki (D(3) dopamine receptor [15]): 4.4 µM

SMILES: CCCN(CCC)C1CCC(=C(C#Cc2ccccc2)C#Cc2ccccc2)CC1 (stereo unspecified)
Ki (D(4) dopamine receptor [3]): 1.4 µM | Ki (D(1A) dopamine receptor [22]): 2.2 µM | Ki (D(2) dopamine receptor [13]): 7.3 µM | Ki (D(2) dopamine receptor [14]): 5.2 µM | Ki (D(3) dopamine receptor [15]): 1.8 µM

SMILES: CCCN(CCC)C1CCC(=CC#N)CC1 (stereo unspecified)
Ki (D(4) dopamine receptor [3]): > 20 µM | Ki (D(1A) dopamine receptor [26]): > 20 µM | Ki (D(2) dopamine receptor [27]): > 20 µM | Ki (D(2) dopamine receptor [28]): > 20 µM | Ki (D(3) dopamine receptor [29]): 13 µM

Further lines, results first:

Ki (D(2) dopamine receptor [1]): 12 µM | Ki (D(2) dopamine receptor [2]): 17 µM | Ki (D(4) dopamine receptor [3]): 0.022 µM | Ki (D(4) dopamine receptor [4]): 0.38 µM | Ki (D(2) dopamine receptor [5]): 19 µM | Ki (D(2) dopamine receptor [6]): 14 µM | Ki (D(2) dopamine receptor [7]): 2.9 µM | Ki (D(2) dopamine receptor [8]): 2.8 µM | Ki (D(4) dopamine receptor [9]): 0.17 µM | Ki (D(3) dopamine receptor [10]): 0.72 µM | Ki (D(3) dopamine receptor [11]): 0.59 µM | Ki (D(3) dopamine receptor [12]): 0.35 µM | Ki (D(2) dopamine receptor [13]): 0.25 µM | Ki (D(2) dopamine receptor [14]): 0.27 µM | Ki (D(3) dopamine receptor [15]): 0.0052 µM
SMILES: C#CC1=CCC(N(CCC)CCC)CC1 (stereo unspecified)

Ki (D(2) dopamine receptor [16]): 0.15 µM | Ki (D(2) dopamine receptor [1]): > 20 µM | Ki (D(2) dopamine receptor [2]): > 20 µM | Ki (D(4) dopamine receptor [3]): 0.16 µM | Ki (D(4) dopamine receptor [4]): 3.8 µM | Ki (D(2) dopamine receptor [17]): 1.6 µM | Ki (D(2) dopamine receptor [18]): 12 µM | Ki (D(2) dopamine receptor [19]): 0.03 µM | Ki (D(2) dopamine receptor [20]): 7.5 µM | Ki (D(2) dopamine receptor [5]): > 20 µM | Ki (D(2) dopamine receptor [6]): > 20 µM | Ki (D(2) dopamine receptor [7]): > 20 µM | Ki (D(2) dopamine receptor [8]): > 20 µM | Ki (D(4) dopamine receptor [9]): 0.64 µM | Ki (D(3) dopamine receptor [10]): 1.9 µM | Ki (D(3) dopamine receptor [11]): 1.6 µM | Ki (D(3) dopamine receptor [21]): 0.82 µM | Ki (D(1A) dopamine receptor [22]): > 20 µM | Ki (D(2) dopamine receptor [13]): 0.97 µM | Ki (D(2) dopamine receptor [14]): 0.16 µM | Ki (D(3) dopamine receptor [15]): 0.047 µM
SMILES: CCCN(CCC)C1CC=C(C#C[Si](C)(C)C)CC1 (stereo unspecified)

Ki (D(4) dopamine receptor [3]): > 20 µM | Ki (D(1A) dopamine receptor [22]): > 20 µM | Ki (D(2) dopamine receptor [13]): > 20 µM | Ki (D(2) dopamine receptor [14]): > 20 µM | Ki (D(3) dopamine receptor [15]): 13 µM
SMILES: CCCN(CCC)C1CC=C(C#N)CC1 (stereo unspecified)

Ki (D(4) dopamine receptor [3]): 16 µM | Ki (D(2) dopamine receptor [24]): 15 µM | Ki (D(2) dopamine receptor [25]): 15 µM | Ki (D(1A) dopamine receptor [22]): > 20 µM | Ki (D(3) dopamine receptor [15]): 3.5 µM
SMILES: CCCN(CCC)C1CC=C(C#Cc2ccccc2)CC1 (stereo unspecified)
